In patent publication US20170119776A1, “CHIRAL 2,5-DISUBSTITUTED CYCLOPENTANECARBOXYLIC ACID DERIVATIVES AND USE THEREOF” (BAYER PHARMA AKTIENGESELLSCHAFT, priority 2014, published 2017) one finds IC50 data, which are given here for six compounds.

Assay type in all cases: biochemical
Test [1] addresses T1, MMP-13 (Homo sapiens, UniProt P45452).
T1 construct: purchased R&D Systems 511-MP
In words: In vitro MMP-13 inhibition test. An excerpt: (§1) The activity strength of the compounds according to the invention towards other MMPs (and therefore their selectivity) is likewise ascertained in in vitro inhibition tests. The MMP-mediated amidolytic cleavage of a suitable peptide substrate also leads here to a fluorescent light increase. The signal intensity of the fluorescent light is directly proportional to the enzyme activity. The active concentration of a test compound at which half of the enzyme is inhibited (50% signal intensity of the fluorescent light) is given as IC50 value.
(§2) Recombinant MMP-13 (R&D Systems, 511-MP) is chemically activated in accordance with the manufacturer's instructions using APMA. 1 μl of the test compound to be analysed (as a solution in DMSO, suitable concentrations e.g. 1 nM to 30 μM) is pipette into 24 μl of activated enzyme (final concentration e.g. 0.1 nM) in reaction buffer (50 mM Tris/HCl pH 7.5, 10 mM CaCl2, 150 mM NaCl, 0.05% Brij®-35) in a white 384-hole microtiter plate (MTP). The enzymatic reaction is started by adding the intramolecularly quenched substrate Mca-Pro-Leu-Gly-Leu-Dpa(Dnp)-Ala-Arg-NH2 (final concentration e.g. 10 μM; R&D Systems, ES-001), such that a total test volume of 50 μl results. The progress of the MMP-13 reaction is measured by measuring the fluorescence intensity (excitation 320 nm, emission 410 nm) over a suitable period (e.g. over 120 min at a temperature of 32° C.).
(§3) The IC50 values were determined for racemates and enantiomers from differently generated DMSO stock solutions. Whereas an automatically produced DMSO stock solution from the internal substance logistics was used for racemates by means of a standard method, in the case of enantiomers a freshly produced, manually prepared DMSO stock solution was used in each case for a more precise direct comparison of the enantiomers with one another.

Test [2] deals with T2, MMP-3 (Homo sapiens, UniProt P08254).
T2 construct: purchased R&D Systems 513-MP
T2 sequence (P08254 100-477): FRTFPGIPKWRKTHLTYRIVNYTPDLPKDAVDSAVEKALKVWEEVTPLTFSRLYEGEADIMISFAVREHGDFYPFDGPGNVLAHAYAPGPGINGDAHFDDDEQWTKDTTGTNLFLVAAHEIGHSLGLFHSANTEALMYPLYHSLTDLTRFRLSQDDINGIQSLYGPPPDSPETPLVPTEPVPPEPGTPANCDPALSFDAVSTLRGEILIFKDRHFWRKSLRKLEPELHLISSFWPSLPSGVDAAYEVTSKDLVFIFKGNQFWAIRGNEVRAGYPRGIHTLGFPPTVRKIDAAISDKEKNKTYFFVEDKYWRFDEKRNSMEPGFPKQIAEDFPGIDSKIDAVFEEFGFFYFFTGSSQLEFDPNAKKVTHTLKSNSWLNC
The test can be described thus: In vitro MMP-3 inhibition test.
Source text: as §1
as §2, with “MMP-3” for “MMP-13”, “513-MP)” for “511-MP)”, “pipetted” for “pipette”, “2” for “0.1”, “Mca-Arg-Pro-Lys-Pro-Val-Glu-Nval-Trp-Arg-Lys(Dnp)-NH2” for “Mca-Pro-Leu-Gly-Leu-Dpa(Dnp)-Ala-Arg-NH2”, “ES-002),” for “ES-001),”
as §3

Test [3] has as its target T3, MMP-16 (Homo sapiens, UniProt P51512).
T3 construct: purchased R&D Systems 1785-MP
The test can be described thus: In vitro MMP-16 inhibition test.
Source text: as §1
Recombinant MMP-16 (R&D Systems, 1785-MP) is enzymatically activated in accordance with the manufacturer's instructions using recombinant furin (R&D Systems, 1503-SE). 1 μl of the test compound to be analysed (as a solution in DMSO, suitable concentrations e.g. 1 nM to 30 μM) is pipette into 24 μl of activated enzyme (final concentration e.g. 1 nM) in reaction buffer (50 mM Tris/HCl pH 7.5, 10 mM CaCl2, 150 mM NaCl, 0.05% Brij®-35) in a white 384-hole microtiter plate (MTP). The enzymatic reaction is started by adding the intramolecularly quenched substrate Mca-Lys-Pro-Leu-Gly-Leu-Dpa(Dnp)-Ala-Arg-NH2 (final concentration e.g. 5 μM; R&D Systems, ES-010), such that a total test volume of 50 μl results. The progress of the MMP-16 reaction is measured by measuring the fluorescence intensity (excitation 320 nm, emission 410 nm) over a suitable period (e.g. over 120 min at a temperature of 32° C.).
as §3

Test [4] addresses T4, MMP-9 of the rat (Rattus norvegicus, UniProt P50282).
T4 construct: purchased R&D Systems 5427-MM
In words: In vitro MMP-9 inhibition test of the rat.

Molecules are shown by their SMILES.

T3 sequence (P51512 120-607): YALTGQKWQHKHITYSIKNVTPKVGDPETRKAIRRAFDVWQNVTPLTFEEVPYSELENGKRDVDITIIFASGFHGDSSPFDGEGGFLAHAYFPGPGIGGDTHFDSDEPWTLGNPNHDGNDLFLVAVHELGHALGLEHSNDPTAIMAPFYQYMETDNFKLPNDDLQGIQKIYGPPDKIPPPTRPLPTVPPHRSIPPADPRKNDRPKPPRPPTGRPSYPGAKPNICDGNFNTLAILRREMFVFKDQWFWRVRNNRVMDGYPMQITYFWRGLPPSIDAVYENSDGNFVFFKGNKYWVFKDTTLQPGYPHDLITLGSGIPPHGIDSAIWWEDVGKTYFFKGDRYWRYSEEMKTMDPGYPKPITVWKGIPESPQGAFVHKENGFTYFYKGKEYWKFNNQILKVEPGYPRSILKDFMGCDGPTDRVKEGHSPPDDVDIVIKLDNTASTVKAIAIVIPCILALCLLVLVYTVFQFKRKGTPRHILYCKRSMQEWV
T4 sequence (P50282 108-708): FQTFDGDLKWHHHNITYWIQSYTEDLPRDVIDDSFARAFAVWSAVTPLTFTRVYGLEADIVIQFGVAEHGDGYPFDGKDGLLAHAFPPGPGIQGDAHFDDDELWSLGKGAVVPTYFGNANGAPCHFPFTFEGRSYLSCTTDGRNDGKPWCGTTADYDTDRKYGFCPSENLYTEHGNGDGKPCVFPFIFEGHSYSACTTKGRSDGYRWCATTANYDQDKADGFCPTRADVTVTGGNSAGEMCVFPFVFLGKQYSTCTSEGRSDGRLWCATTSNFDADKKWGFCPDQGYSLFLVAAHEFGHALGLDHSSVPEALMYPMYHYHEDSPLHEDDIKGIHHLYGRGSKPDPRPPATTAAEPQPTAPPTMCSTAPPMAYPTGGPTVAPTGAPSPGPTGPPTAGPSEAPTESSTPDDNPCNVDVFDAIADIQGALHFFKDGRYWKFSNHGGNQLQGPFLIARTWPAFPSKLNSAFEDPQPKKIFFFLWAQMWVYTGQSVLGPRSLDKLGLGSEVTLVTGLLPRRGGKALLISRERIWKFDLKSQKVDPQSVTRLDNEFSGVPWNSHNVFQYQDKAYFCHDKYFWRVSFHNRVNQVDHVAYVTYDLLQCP

The term IC50 denotes the concentration that gives 50% inhibition. A low value points to higher potency. `O=C(O)[C@H]1[C@H](Cn2nnc3ccccc3c2=O)CC[C@@H]1C(=O)c1ccc(-c2ccc(Cl)cc2)cc1` (racemic) [Comparative Example A-1, (1RS,2RS,5SR)-2-[(4′-chlorobiphenyl-4-yl)carbonyl]-5-[(4-oxo-1,2,3-benzotriazin-3(4H)-yl)methyl]cyclopentanecarboxylic acid (racemate)]: the concentration for half-maximal inhibition (IC50) in test [1] came to 0.0018 µM; in test [2] it was 0.049 µM; in test [3] it was 0.016 µM; in test [4] it was 0.0046 µM.
Consider `CCCCCOc1ccc(C(=O)CC(CCn2nnc3ccccc3c2=O)C(=O)O)cc1` (single isomer, unassigned; enantiomer 1) [Comparative Example B-2, (+)-4-Oxo-2-[2-(4-oxo-1,2,3-benzotriazin-3(4H)-yl)ethyl]-4-[4-(pentyloxy)phenyl]butanoic acid (enantiomer 1)], for which the IC50 in test [1] stood at 0.36 µM; in test [2], 6.6 µM; in test [3] it was 6.7 µM; in test [4] it was 1.35 µM.
Consider `CCCCCOc1ccc(C(=O)CC(CCn2nnc3ccccc3c2=O)C(=O)O)cc1` (racemic) [Comparative Example B-1, (+/−)-4-Oxo-2-[2-(4-oxo-1,2,3-benzotriazin-3(4H)-yl)ethyl]-4-[4-(pentyloxy)phenyl]butanoic acid (racemate)], for which the IC50 in test [1] was 1.8 µM; in test [2], 9.15 µM; in test [3] it was 22 µM; in test [4], 3.2 µM.
On the same counts, the results for `O=C(O)[C@@H]1[C@@H](Cn2nnc3ccccc3c2=O)CC[C@H]1C(=O)c1ccc(-c2ccc(Cl)cc2)cc1` (single isomer, unassigned; enantiomer 2) [Comparative Example A-3, (1RS,2RS,5SR)-2-[(4′-Chlorobiphenyl-4-yl)carbonyl]-5-[(4-oxo-1,2,3-benzotriazin-3(4H)-yl)methyl]cyclopentanecarboxylic acid (enantiomer 2)] are 0.00082 µM, 0.0225 µM, 0.0052 µM and 0.0033 µM.
Regarding `O=C(O)[C@H]1[C@H](Cn2nnc3ccccc3c2=O)CC[C@@H]1C(=O)c1ccc(OCc2ccccc2)cc1` [Example 2, (+)-(1S,2S,5R)-2-[4-(Benzyloxy)benzoyl]-5-[(4-oxo-1,2,3-benzotriazin-3(4H)-yl)methyl]cyclopentanecarboxylic acid], the IC50 in test [1] amounted to 0.0145 µM; in test [2] it was 0.175 µM; in test [3] it was 0.0785 µM; in test [4], 0.0465 µM.
For `O=C(O)[C@H]1[C@H](Cn2nnc3ccccc3c2=O)CC[C@@H]1C(=O)c1ccc(OCc2ccccc2)cc1` (racemic) [Example 1, (+/−)-(1RS,2RS,5SR)-2-[4-(Benzyloxy)benzoyl]-5-[(4-oxo-1,2,3-benzotriazin-3(4H)-yl)methyl]cyclopentanecarboxylic acid (racemate)], the IC50 was determined as 0.03 µM in test [1], 0.39 µM in test [2], 0.13 µM in test [3] and 0.11 µM in test [4].
